Drawing on patent publication US11440913B2, “Aminoimidazopyridazines as kinase inhibitors” (BRISTOL-MYERS SQUIBB COMPANY, priority 2017, dated 2022), this text covers IC50 for 23 molecules.

Structures can show the parent of a compound that is named as a salt. Where two headings read alike, the source gives them in different places.

Test [1] concerns the target His-GST-TVMV-hRIPK1(1-324) (Homo sapiens (Human), UniProt Q13546). Briefly: RIPK1 HTRF Binding Assay. To be noted: HTRF binding, 1 h at rt; read-out: RIPK1 (IC50). The essentials: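 HTRF probe-displacement binding: 1 nM His-GST-TVMV-hRIPK1(1-324) (baculovirus construct), 90.6 nM probe, 0.2 nM anti-GST-Tb in 20 mM HEPES, 10 mM MgCl2, 0.015% Brij-35, 4 mM DTT, 0.05 mg/mL BSA. Incubated 1 h at rt; FRET 520/495 nm ratio, inhibition relative to DMSO-only wells.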
Background: Time-resolved FRET reads energy transfer from a long-lived donor to a nearby acceptor.

The test system of test [2] is MLKL phosphorylation in HT29-L23 human colorectal adenocarcinoma cells. Kind of test: MLKL Phosphorylation High-Content Assay. It is filed as cell-based. Conditions: 6 h, necroptosis induced with TNFα, SMAC mimetic and Z-VAD, read-out: pMLKL (IC50). The essentials:
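HT29-L23 cells pretreated 30 min at 37 °C with compound (6.25 to 0.106 μM final), then necroptosis induced with TNFα 35 ng/mL, SMAC mimetic 700 nM and Z-VAD 140 nM for 6 h. Fixed cells immunostained for MLKL pS358 and imaged; IC50 and Ymax from 4-parameter logistic fit.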

Chain of His-GST-TVMV-hRIPK1(1-324) (Q13546 1-324): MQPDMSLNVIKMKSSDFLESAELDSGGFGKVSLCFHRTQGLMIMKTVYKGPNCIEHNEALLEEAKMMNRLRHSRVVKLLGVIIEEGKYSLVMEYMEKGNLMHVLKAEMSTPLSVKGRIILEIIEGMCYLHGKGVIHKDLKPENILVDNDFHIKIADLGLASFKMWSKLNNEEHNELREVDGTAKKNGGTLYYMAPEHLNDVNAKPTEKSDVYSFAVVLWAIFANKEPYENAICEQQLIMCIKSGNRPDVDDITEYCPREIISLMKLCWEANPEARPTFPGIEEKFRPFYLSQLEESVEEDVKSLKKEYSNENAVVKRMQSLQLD

In general, IC50 refers to the concentration that gives 50% inhibition. As to `Cc1nc(C)c(-c2ccc3nc(NC(=O)CO)cn3n2)cc1C(=O)N[C@H](C)c1cc(C(F)(F)F)ccc1F` [Example 92, N-[(1R)-1-[2-fluoro-5-(trifluoromethyl)phenyl]ethyl]-5-[2-(2-hydroxyacet-amido)imidazo[1,2-b]pyridazin-6-yl]-2,6-dimethylpyridine-3-carboxamide], the IC50 was 48 nM in test [1] and 127 nM in test [2] (Homo sapiens).

Regarding `[2H]C([2H])(NC(=O)c1cc(-c2ccc3nc(NC(=O)CO)cn3n2)c(C)nc1C)c1cc(C(F)(F)F)ccc1F` [Example 93, N-{[2-fluoro-5-(trifluoro-methyl)phenyl](deutero)methyl}-5-[2-(2-hydroxy-acetamido)imidazo[1,2-b]pyridazin-6-yl]-2,6-dimethylpyridine-3-carboxamide], the IC50 in test [1] was determined as 50 nM; in test [2] (Homo sapiens), 129 nM.

Regarding `Cc1nc(C)c(-c2ccc3nc(NC(=O)CO)cn3n2)cc1C(=O)NCc1cc(C(F)(F)F)ccc1F` [Example 94, N-{[2-fluoro-5-(trifluoromethyl)phenyl]methyl}-5-[2-(2-hydroxyacet-amido)imidazo[1,2-b]pyridazin-6-yl]-2,6-dimethylpyridine-3-carboxamide], the IC50 in test [1] worked out at 77 nM; in test [2] (Homo sapiens), 87 nM.

On to `Cc1nc(C)c(-c2ccc3nc(NC(=O)CO)cn3n2)cc1C(=O)N[C@H](C)c1cc(OC(F)(F)F)ccc1F` [Example 95, N-[(1R)-1-[2-fluoro-5-(trifluoromethoxy)phenyl]ethyl]-5-[2-(2-hydroxyacet-amido)imidazo[1,2-b]pyridazin-6-yl]-2,6-dimethylpyridine-3-carboxamide], for which the IC50 in test [1] was found to be 30 nM; in test [2] (Homo sapiens), 68 nM.

As to `COc1ncc(-c2ccc3nc(NC(C)=O)cn3n2)cc1C(=O)NCc1cc(F)cc(F)c1OC1CCOC(C)C1` (stereo not shown) [Example 96, N-({3,5-difluoro-2-[(2-methyloxan-4-yl)oxy]phenyl}methyl)-5-{2-acetamidoimidazo[1,2-b]pyridazin-6-yl}-2-methoxypyridine-3-carboxamide], the IC50 was determined as 10 nM in test [1] and 25 nM in test [2] (Homo sapiens).

With `COc1ncc(-c2ccc3nc(NC(C)=O)cn3n2)cc1C(=O)NCc1cc(F)cc(F)c1OCC1CCC1` [Example 97, N-{[2-(cyclobutylmethoxy)-3,5-difluorophenyl]methyl}-5-{2-acetamidoimidazo[1,2-b]pyridazin-6-yl}-2-methoxypyridine-3-carboxamide], the IC50 in test [1] and in test [2] (Homo sapiens) was 2 nM throughout.

In the case of `COc1ncc(-c2ccc3nc(NC(C)=O)cn3n2)cc1C(=O)NCc1cc(F)cc(F)c1O[C@H]1CCOC1` [Example 98, N-({3,5-difluoro-2-[(3S)-oxolan-3-yloxy]phenyl}methyl)-5-{2-acetamidoimidazo[1,2-b]pyridazin-6-yl}-2-methoxypyridine-3-carboxamide], the IC50 in test [1] turned out to be 2 nM; in test [2] (Homo sapiens), 39 nM.

With `COc1ncc(-c2ccc3nc(NC(C)=O)cn3n2)cc1C(=O)NCc1cc(F)cc(F)c1OC1CCCOC1` (stereo not shown) [Example 99, N-{[3,5-difluoro-2-(oxan-3-yloxy)phenyl]methyl}-5-{2-acetamidoimidazo[1,2-b]pyridazin-6-yl}-2-methoxypyridme-3-carboxamide], the IC50 in test [1] was found to be 6 nM; in test [2], 24 nM.

Regarding `COc1ccc(F)c(CNC(=O)c2cc(-c3ccc4nc(NC(C)=O)cn4n3)cnc2OC)c1` [Example 100, 5-{2-acetamidoimidazo[1,2-b]pyridazin-6-yl}-N-[(2-fluoro-5-methoxyphenyl)methyl]-2-methoxypyridine-3-carboxamide], the IC50 is 56 nM in test [1] and 203 nM in test [2] (Homo sapiens).

Take `COc1ncc(-c2ccc3nc(NC(C)=O)cn3n2)cc1C(=O)NCc1c(F)cccc1OCC(F)(F)F` [Example 102, 5-{2-acetamidoimidazo[1,2-b]pyridazin-6-yl}-N-{[2-fluoro-6-(2,2,2-trifluoroethoxy)phenyl]methyl}-2-methoxypyridine-3-carboxamide]: the values for the IC50 in test [1] and in test [2] (Homo sapiens) were 7 nM and 10 nM, respectively.

Regarding `COc1ncc(-c2ccc3nc(NC(C)=O)cn3n2)cc1C(=O)NCc1cc(F)cc(F)c1OC1CC(C)OC(C)C1` (stereo not shown) [Example 103, N-({2-[(2,6-dimethyloxan-4-yl)oxy]-3,5-difluorophenyl}methyl)-5-{2-acetamidoimidazo[1,2-b]pyridazin-6-yl}-2-methoxypyridine-3-carboxamide], the IC50 in test [1] amounted to 51 nM; in test [2] (Homo sapiens) it was 188 nM.

For `COc1ncc(-c2ccc3nc(NC(C)=O)cn3n2)cc1C(=O)N[C@H](C)c1ccccc1C(F)(F)F` [Example 104, 5-{2-acetamidoimidazo[1,2-b]pyridazin-6-yl}-2-methoxy-N-[(1R)-1-[2-(trifluoromethyl)phenyl]ethyl]pyridine-3-carboxamide], the IC50 in test [1] is 36 nM; in test [2] (Homo sapiens), 73 nM.

For the molecule `COc1ncc(-c2ccc3nc(NC(C)=O)cn3n2)cc1C(=O)NCc1cc(F)ccc1OCC(F)(F)F` [Example 105, 5-{2-acetamidoimidazo[1,2-b]pyridazin-6-yl}-N-{[5-fluoro-2-(2,2,2-trifluoroethoxy)phenyl]methyl}-2-methoxypyridine-3-carboxamide], the IC50 amounted to 5 nM in test [1] and 17 nM in test [2] (Homo sapiens).

Consider `COc1ncc(-c2ccc3nc(NC(C)=O)cn3n2)cc1C(=O)N[C@@H](C)c1cc(C(F)(F)F)ccc1F` [Example 106, 5-{2-acetamidoimidazo[1,2-b]pyridazin-6-yl}-N-[(1S)-1-[2-fluoro-5-(trifluoromethyl)phenyl](2,2,2-deutero)ethyl]-2-methoxypyridine-3-carboxamide], for which the IC50 in test [1] was 84 nM; in test [2], 95 nM.

Consider `COc1ncc(-c2ccc3nc(NC(C)=O)cn3n2)cc1C(=O)N[C@H](C)c1cc(C(F)(F)F)ccc1F` [Example 107, 5-{2-acetamidoimidazo[1,2-b]pyridazin-6-yl}-N-[(1R)-1-[2-fluoro-5-(trifluoromethyl)phenyl](2,2,2-deutero)ethyl]-2-methoxypyridine-3-carboxamide], for which the IC50 came out at 193 nM in test [1] and 306 nM in test [2].

Turning to `COc1ncc(-c2ccc3nc(NC(C)=O)cn3n2)cc1C(=O)NCc1ccccc1OCC(F)(F)F` [Example 108, 5-{2-acetamidoimidazo[1,2-b]pyridazin-6-yl}-2-methoxy-N-{[2-(2,2,2-trifluoroethoxy)phenyl]meth-yl}pyridine-3-carboxamide], the IC50 is 4 nM in test [1] and 28 nM in test [2] (Homo sapiens).

For the molecule `COc1ncc(-c2ccc3nc(NC(C)=O)cn3n2)cc1C(=O)N[C@H](C)c1cc(OC(F)(F)F)ccc1F` [Example 109, 5-{2-acetamidoimidazo[1,2-b]pyridazin-6-yl}-N-[(1R)-1-[2-fluoro-5-(trifluoromethoxy)phenyl](2,2,2-deutero)ethyl]-2-methoxypyridine-3-carboxamide], the IC50 came out at 32 nM in test [1] and 85 nM in test [2].

For `COc1ncc(-c2ccc3nc(NC(C)=O)cn3n2)cc1C(=O)NCc1cccc(C(F)(F)F)c1` [Example 110, 5-{2-acetamidoimidazo[1,2-b]pyridazin-6-yl}-2-methoxy-N-{[3-(trifluoromethyl)phen-yl](deutero)methyl}pyridine-3-carboxamide], the results for the IC50 in test [1] and in test [2] were 27 nM and 113 nM, respectively.

As to `COc1ncc(-c2ccc3nc(NC(C)=O)cn3n2)cc1C(=O)NCc1cc(C(F)(F)F)ccc1F` [Example 111, 5-{2-acetamidoimidazo[1,2-b]pyridazin-6-yl}-N-{[2-fluoro-5-(trifluoromethyl)phen-yl](deutero)methyl}-2-methoxypyridine-3-carboxamide], the values for the IC50 in test [1] and in test [2] were 19 nM and 36 nM, respectively.

Regarding `COc1ncc(-c2ccc3nc(NC(C)=O)cn3n2)cc1C(=O)N[C@H](C)c1cccc(OC(F)(F)F)c1` [Example 112, 5-{2-acetamidoimidazo[1,2-b]pyridazin-6-yl}-2-methoxy-N-[(1R)-1-[3-(trifluoromethoxy)phenyl](2,2,2-deutero)ethyl]pyridine-3-carboxamide], the figures for the IC50 in test [1] and in test [2] were 17 nM and 73 nM, respectively.

With `COc1ncc(-c2ccc3nc(NC(C)=O)cn3n2)cc1C(=O)NCc1ccccc1CN1CCOCC1` [Example 113, 5-{2-acetamidoimidazo[1,2-b]pyridazin-6-yl}-2-methoxy-N-({2-[(morpholin-4-yl)methyl]phenyl}methyl)pyridine-3-carboxamide, 2 TFA], the IC50 in test [1] turned out to be 38 nM; in test [2], 298 nM.

In the case of `COc1ncc(-c2ccc3nc(NC(C)=O)cn3n2)cc1C(=O)NCc1ccccc1COC(C)C` [Example 114, 5-{2-acetamidoimidazo[1,2-b]pyridazin-6-yl}-2-methoxy-N-({2-[(propan-2-yloxy)methyl]phenyl}meth-yl)pyridine-3-carboxamide, TFA], the figures for the IC50 in test [1] and in test [2] were 8 nM and 33 nM, respectively.

For the molecule `COc1ncc(-c2ccc3nc(NC(C)=O)cn3n2)cc1C(=O)NCc1cc(F)cc(F)c1OC1COC1` [Example 115, N-{[3,5-difluoro-2-(oxetan-3-yloxy)phenyl]methyl}-5-{2-acetamidoimidazo[1,2-b]pyridazin-6-yl}-2-methoxypyridine-3-carboxamide], the IC50 is 12 nM in test [1] and 65 nM in test [2] (Homo sapiens).
